Columns and labels:
[1] = tested on: ABSSSI; experiment: Earlier Phase 3 i.v.-to-oral omadacycline vs linezolid study in ABSSSI: clinical success; type: in vivo, human; details: i.v. with switch to oral
[2] = human, in vivo
[3] = Phase 3 oral omadacycline vs oral linezolid in ABSSSI: safety (adverse events, TEAEs, vital signs, ECG, laboratory); type: in vivo; details: safety population
Excerpt: An Adverse Event (AE) is any untoward, undesired, or unplanned event in the form of signs, symptoms, disease, or laboratory or physiologic observations occurring in a person given a test article or in a clinical study. […] An AE includes, but is not limited to, the following: any clinically significant worsening of a preexisting condition; an AE occurring from overdose of a test article, whether accidental or intentional; overdose is a dose greater than that specified in the protocol; an AE occurring from abuse (e.g., use for nonclinical reasons) of a test article; and an AE that has been associated with the discontinuation of the use of a test article.
The severity (or intensity) of an AE was classified using the following criteria:
Concerning relatedness, causality (i.e., whether there was a reasonable possibility that test article caused the event) for all AEs and SAEs was assessed.
Safety variables include the incidence rate of AEs, change in vital signs, ECG parameters and laboratory test results obtained during the course of the study. For safety analyses, subjects were analyzed according to the treatment actually received.
Summary tables were provided for all treatment-emergent adverse events (TEAEs). A TEAE is defined as an AE with a start date and time on or after the first dose of test article. […] Additional tabulations provide summaries by SOC and PT of subjects experiencing SAEs, severe TEAEs, TEAEs judged to be related to test article, TEAEs leading to discontinuation of test article, and TEAEs of special interest.
The following variables were analyzed descriptively: Vital signs (systolic and diastolic BP, pulse rate, body temperature, respiratory rate), including change from Screening by visit; Clinically notable vital signs (meeting predefined criteria as specified in the SAP) by visit. Subjects with notable vital signs data were listed.
ECG data (RR interval, PR interval, QRS interval, QTc, QTc Bazett's Correction Formula [QTcB], and QTc Fridericia's Correction Formula [QTcF]) was summarized descriptively at each scheduled evaluation, and for the overall worst post-Screening value. Changes from Screening at each visit that a 12-lead ECG was obtained was also provided. An outlier analysis was conducted based on the worst post-Screening value.
The following variables were analyzed descriptively: Laboratory variables by visit; Change from Screening of laboratory variables by visit; and Clinically notable laboratory values (meeting predefined criteria specified in the SAP) by visit.

In the case of `CN(C)c1cc(CNCC(C)(C)C)c(O)c2c1C[C@H]1C[C@H]3[C@H](N(C)C)C(O)=C(C(N)=O)C(=O)[C@@]3(O)C(O)=C1C2=O` [Omadacycline, 9-[(2,2-dimethyl-propylamino)-methyl]-minocycline], the “clinical success based on investigator's assessment of clinical response” value ([1]; 7-14 days after the last dose) is reported as 86.1%, the “clinical success based on a reduction of lesion size” value ([1]; 48-72 hours after the first dose, FDA primary analysis population (N=627)) is reported as 84.8% and the non-inferiority to linezolid ([1]; 7-14 days) is reported as “non-inferior”. The “discontinuation due to TEAE, % of subjects” value [2] was 1.9%, the “serious TEAEs, % of subjects” value [2] was 3.4% and the “treatment-emergent adverse events (TEAEs), % of subjects” value [2] was 48.3%. The Subjects who died [3] was 0 n (%), the “Subjects with at Least One Adverse Events (AE)” value [3] was 201 (54.6) n (%) and the “Subjects with at Least One Drug-Related Serious TEAE” value [3] was 0 n (%). The “Subjects with at Least One Drug-Related TEAE” value [3] was 139 (37.8) n (%), the “Subjects with at Least One Serious TEAE” value [3] was 5 (1.4) n (%) and the “Subjects with at Least One Serious TEAE leading to Death” value [3] was 0 n (%). The “Subjects with at Least One Serious TEAEs leading to premature discontinuation of test article” value [3] was 3 (0.8) n (%), the “Subjects with at Least One Severe TEAE” value [3] was 6 (1.6) n (%) and the “Subjects with at Least One TEAE Leading to Study Drug Discontinuation” value [3] was 6 (1.6) n (%). The “Subjects with at Least One TEAE leading to dose interruption” value [3] was 0 n (%), the “Subjects with at Least One TEAE leading to premature discontinuation of study” value [3] was 3 (0.8) n (%) and the “Subjects with at Least One TEAE leading to premature discontinuation of test article” value [3] was 6 (1.6) n (%). For the same compound, the “TEAE leading to study drug discontinuation: Cellulitis” value [3] was 1 (0.3) n (%), the “TEAE leading to study drug discontinuation: Gastrointestinal Disorders (SOC)” value [3] was 1 (0.3) n (%) and the “TEAE leading to study drug discontinuation: Haematemesis” value [3] was 1 (0.3) n (%). The “TEAE leading to study drug discontinuation: Infections And Infestations (SOC)” value [3] was 4 (1.1) n (%), the “TEAE leading to study drug discontinuation: Nausea” value [3] was 1 (0.3) n (%) and the “TEAE leading to study drug discontinuation: Pregnancy” value [3] was 1 (0.3) n (%). The “TEAE leading to study drug discontinuation: Pregnancy, Puerperium And Perinatal Conditions (SOC)” value [3] was 1 (0.3) n (%), the “TEAE leading to study drug discontinuation: Staphylococcal Bacteraemia” value [3] was 1 (0.3) n (%) and the “TEAE leading to study drug discontinuation: Subcutaneous Abscess” value [3] was 1 (0.3) n (%). The “TEAE leading to study drug discontinuation: Vomiting” value [3] was 1 (0.3) n (%), the “TEAE leading to study drug discontinuation: Wound Infection” value [3] was 1 (0.3) n (%) and the “TEAE: Alanine Aminotransferase Increased” value [3] was 19 (5.2) n (%). For the same compound, the “TEAE: Aspartate Aminotransferase Increased” value [3] was 17 (4.6) n (%), the “TEAE: Cellulitis” value [3] was 12 (3.3) n (%) and the “TEAE: Headache” value [3] was 13 (3.5) n (%). For the same compound, the “TEAE: Wound Infection” value [3] was 22 (6.0) n (%), the “Total Number of AEs” value [3] was 468 and the “Total Number of TEAEs” value [3] was 448. For the same compound, the “Subjects with at Least One TEAE” value ([3]; AE overview) was 197 (53.5) n (%), the “TEAE: Abdominal Pain Upper” value ([3]; all severities) was 10 (2.7) n (%) and the “TEAE: Diarrhea” value ([3]; all severities) was 15 (4.1) n (%). For the same compound, the “TEAE: Nausea” value ([3]; all severities) was 111 (30.2) n (%), the “TEAE: Vomiting” value ([3]; all severities) was 62 (16.8) n (%) and the “Subjects with at Least One TEAE, Mild” value ([3]; highest severity Mild) was 120 (32.6) n (%). For the same compound, the “TEAE: Abdominal Pain Upper, Mild” value ([3]; highest severity Mild) was 9 (2.4) n (%), the “TEAE: Abdominal Pain, Mild” value ([3]; highest severity Mild) was 3 (0.8) n (%) and the “TEAE: Diarrhea, Mild” value ([3]; highest severity Mild) was 13 (3.5) n (%). For the same compound, the “TEAE: Gastrointestinal Disorders (SOC), Mild” value ([3]; highest severity Mild) was 105 (28.5) n (%), the “TEAE: Nausea, Mild” value ([3]; highest severity Mild) was 83 (22.6) n (%) and the “TEAE: Vomiting, Mild” value ([3]; highest severity Mild) was 44 (12.0) n (%). The “Subjects with at Least One TEAE, Moderate” value ([3]; highest severity Moderate) was 71 (19.3) n (%), the “TEAE: Abdominal Pain Upper, Moderate” value ([3]; highest severity Moderate) was 1 (0.3) n (%) and the “TEAE: Abdominal Pain, Moderate” value ([3]; highest severity Moderate) was 3 (0.8) n (%). For the same compound, the “TEAE: Diarrhea, Moderate” value ([3]; highest severity Moderate) was 2 (0.5) n (%), the “TEAE: Gastrointestinal Disorders (SOC), Moderate” value ([3]; highest severity Moderate) was 39 (10.6) n (%) and the “TEAE: Nausea, Moderate” value ([3]; highest severity Moderate) was 28 (7.6) n (%). The “TEAE: Vomiting, Moderate” value ([3]; highest severity Moderate) was 18 (4.9) n (%), the “Subjects with at Least One TEAE, Severe” value ([3]; highest severity Severe) was 6 (1.6) n (%) and the “TEAE: Abdominal Pain Upper, Severe” value ([3]; highest severity Severe) was 0 n (%). The “TEAE: Abdominal Pain, Severe” value ([3]; highest severity Severe) was 0 n (%), the “TEAE: Diarrhea, Severe” value ([3]; highest severity Severe) was 0 n (%) and the “TEAE: Gastrointestinal Disorders (SOC), Severe” value ([3]; highest severity Severe) was 0 n (%). The “TEAE: Nausea, Severe” value ([3]; highest severity Severe) was 0 n (%) and the “TEAE: Vomiting, Severe” value ([3]; highest severity Severe) was 0 n (%).
